The values that follow come from patent US8591880B2, “Gut flora and weight management” (priority 2007, dated 2013).

Common to all, as to format: cell-based
The test system of assay [1] is Enterobacteria. In words: In vitro antibiotic susceptibility strip test, Enterobacteria. Conditions: for Susceptibility class, Enterobacteria / Count in brackets, Enterobacteria: colonies from feces of ob/ob mice; for Susceptibility class, Enterobacteria: Mueller Hinton agar, strip test; for Count in brackets, Enterobacteria: fraction given, not defined; for Growth / susceptibility of fecal enterobacteria, in words: summary of Table 1.

Assay [2] relates to Bacteroides. Nature of the assay: In vitro antibiotic susceptibility strip test, Bacteroides. Conditions: for Count in brackets, Bacteroides: fraction given, not defined.
Assay [3] concerns Lactobacillus. Nature of the assay: In vitro antibiotic susceptibility strip test, Lactobacillus. Conditions: colonies from feces of ob/ob mice; for Susceptibility class, Lactobacillus: MRS/cystein agar, strip test; for Count in brackets, Lactobacillus: fraction given, not defined.
In assay [4] the test system is Bifidobacteria. Nature of the assay: In vitro antibiotic susceptibility strip test, Bifidobacteria. The note with it: colonies from feces of ob/ob mice; for Susceptibility class, Bifidobacteria: MRS/cystein agar, strip test; for Count in brackets, Bifidobacteria: fraction given, not defined.
Setting [5] is: colonies from feces of ob/ob mice, Brucella agar, strip test.
The mark [6] stands for this setting: colonies from feces of ob/ob mice.

Read-outs that look alike come from different tables or passages of the source.

Take `CC1(C)S[C@@H]2[C@H](NC(=O)[C@H](N)c3ccccc3)C(=O)N2[C@H]1C(=O)O` [Ampicillin, ampicillin]: in assay [1], the “Susceptibility class, Enterobacteria” value is reported as “S/R”; the “Count in brackets, Enterobacteria” value is reported as 13/19; the “Growth / susceptibility of fecal enterobacteria, in words” value (shortened to “Growth / susceptibility”) is recorded as “only partially sensitive”. The “Susceptibility class, Bacteroides” value in assay [2] (setting [5]) is listed as “S”. For the same compound, the “Count in brackets, Bacteroides” value in assay [2] (setting [6]) is on record as 16/16. In addition, in assay [3], the “Susceptibility class, Lactobacillus” value is on record as “S” and the “Count in brackets, Lactobacillus” value is 33/33. For the same compound, in assay [4], the “Susceptibility class, Bifidobacteria” value is “S” and the “Count in brackets, Bifidobacteria” value is on record as 3/3.
For `CC1(C)S[C@@H]2[C@H](NC(=O)[C@H](N)c3ccc(O)cc3)C(=O)N2[C@H]1C(=O)O` [Amoxicillin, amoxicillin], in assay [1], the “Susceptibility class, Enterobacteria” value is “R”; the “Count in brackets, Enterobacteria” value was 0/19; the “Growth / susceptibility” value is “resistant”. In addition, in assay [2], the “Susceptibility class, Bacteroides” value is listed as “S/R (14/16)”. Further, the “Count in brackets, Bacteroides” value in assay [2] (setting [6]) is on record as “S/R (14/16)”. Further, in assay [3], the “Susceptibility class, Lactobacillus” value is reported as “S” and the “Count in brackets, Lactobacillus” value is given as 33/33. Besides, in assay [4], the “Susceptibility class, Bifidobacteria” value is reported as “S” and the “Count in brackets, Bifidobacteria” value is recorded as 3/3.
As to `CCn1cc(C(=O)O)c(=O)c2cc(F)c(N3CCNCC3)cc21` [Norfloxacin, norfloxacin], in assay [1], the “Susceptibility class, Enterobacteria” value was “S”; the “Count in brackets, Enterobacteria” value was 19/19; the “Growth / susceptibility” value is reported as “capable of suppressing the growth”. Besides, the “Susceptibility class, Bacteroides” value in assay [2] (setting [5]) is “R”. The “Count in brackets, Bacteroides” value in assay [2] (setting [6]) is 0/16. In assay [3], the “Susceptibility class, Lactobacillus” value is reported as “S/R” and the “Count in brackets, Lactobacillus” value is listed as 25/33. In assay [4], the “Susceptibility class, Bifidobacteria” value is reported as “R” and the “Count in brackets, Bifidobacteria” value is reported as 0/3.
